Consider eight compounds from PubChem BioAssay (NCI).

Some test systems named below: K-562 leukemia; SK-OV-3 ovarian; SN12C renal; PC-3 prostate; OVCAR-8 ovarian; MDA-MB-435; SR leukemia; HT29 colon; SF-295 CNS; UACC-62 melanoma.
Experiment in all cases: growth of human tumour cells (NCI), 48 h

Structures are written as SMILES. Where “and” joins values, the source holds several entries; their conditions need not be identical. Equal values may be shown once.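 96-well plates; 48 h exposure; 5 concentrations. Endpoints by linear interpolation between flanking doses. Not reached: highest tested concentration assigned. The concentration for 50% growth inhibition is given as GI50. TGI marks complete inhibition of growth.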

For `C/C(=N\NC(=O)c1ccncc1)c1ccc(O)cc1O`, the GI50 in the test with K-562 leukemia was 6.62 µM; in the test with SK-OV-3 ovarian it was 5.34 µM; in the test with SN12C renal, 6.48 µM; in the test on PC-3 prostate it was 10.9 µM; with OVCAR-8 ovarian it was 2.93 µM; in the test with MDA-MB-435 it was 5.03 µM. Also, the GI50 with SR leukemia was 4.16 µM; in the test with HT29 colon it was 8.09 µM; in the test on SF-295 CNS it was 2.39 µM; with UACC-62 melanoma, 3.3 µM. Besides, the TGI in the test with K-562 leukemia, in the test on SK-OV-3 ovarian, in the test with SN12C renal, in the test on PC-3 prostate, with OVCAR-8 ovarian and with MDA-MB-435 was above 100 µM in each case. Besides, the TGI was above 100 µM in the test on SR leukemia, above 100 µM in the test on HT29 colon, 6.69 µM with SF-295 CNS and above 100 µM in the test with UACC-62 melanoma.
Take `CCCN1CCN(c2ccc3nc(-c4ccc5nc(-c6ccc(OCC)c(OCC)c6)[nH]c5c4)[nH]c3c2)CC1`: the GI50 is 1.6 µM in the test on SK-OV-3 ovarian; 0.526 µM with SN12C renal; 0.381 µM with PC-3 prostate; 0.451 µM in the test on OVCAR-8 ovarian; 0.532 µM in the test with MDA-MB-435; 0.263 µM with SR leukemia. Besides, the GI50 in the test with HT29 colon is 0.294 µM; with SF-295 CNS, 0.391 µM; with UACC-62 melanoma, 0.348 µM. Moreover, the TGI with SK-OV-3 ovarian stood at 7.54 µM; in the test on SN12C renal, 2.14 µM; in the test with PC-3 prostate, 1.92 µM; in the test with OVCAR-8 ovarian, 2.16 µM; with MDA-MB-435, 1.81 µM; with SR leukemia, 0.896 µM. In addition, the TGI with HT29 colon came out at 1.66 µM; in the test on SF-295 CNS, 2.03 µM; in the test with UACC-62 melanoma it was 1.87 µM.
Consider `CC[C@]12CCCN3CC[C@]4(C(=C(C(=O)OC)C1)Nc1ccccc14)[C@@H]32`, for which the GI50 in the test on K-562 leukemia was 11.9 µM; with SN12C renal, 16.4 µM; with PC-3 prostate, 20.5 µM; with OVCAR-8 ovarian it was 17.6 µM; in the test with MDA-MB-435, 11.1 µM; in the test on SR leukemia, 17.2 µM. Besides, the GI50 in the test with HT29 colon is 14.1 µM; in the test on SF-295 CNS, 17.9 µM; with UACC-62 melanoma, 11.4 µM. Moreover, the TGI in the test on K-562 leukemia was 43.4 µM; in the test on SN12C renal it was 33.2 µM; with PC-3 prostate, 61.5 µM; in the test with OVCAR-8 ovarian it was 38.9 µM; in the test with MDA-MB-435, 41 µM; in the test with SR leukemia, above 100 µM. For the same compound, the TGI in the test on HT29 colon came to 33.9 µM; in the test with SF-295 CNS it was 36.1 µM; in the test with UACC-62 melanoma it was 31 µM.
With `Cc1nn(-c2ccc(Br)cc2)c(C)c1CC(=O)c1cc(O)ccc1O`, the GI50 in the test with K-562 leukemia is 3.02 µM; with SN12C renal, 6.79 µM; in the test on PC-3 prostate, 9.97 µM; in the test with OVCAR-8 ovarian, 8.09 µM; with MDA-MB-435, 6.92 µM; in the test on SR leukemia it was 0.911 µM. The GI50 was 13.2 µM in the test with HT29 colon, 14.9 µM in the test on SF-295 CNS and 4.24 µM with UACC-62 melanoma. For the same compound, the TGI is 29.5 µM in the test on K-562 leukemia; 16.6 µM with SN12C renal; above 50 µM in the test with PC-3 prostate; 23.2 µM with OVCAR-8 ovarian; above 50 µM in the test on MDA-MB-435; above 50 µM with SR leukemia. Moreover, the values for the TGI in the test with HT29 colon, with SF-295 CNS and in the test with UACC-62 melanoma were 36.7 µM, 30.3 µM and 11.4 µM, respectively.
For the compound `CC(C)[C@@H]1CC[C@@H]2[C@@H]1[C@H](OC(=O)/C=C/c1ccccc1)[C@]1(C(C)C)C[C@@H](OC(=O)CO)[C@@]2(C)O1`, the GI50 in the test on K-562 leukemia was 10.4 µM; in the test with SK-OV-3 ovarian, 10.3 µM; in the test with SN12C renal, 3.39 µM; with PC-3 prostate it was 5.31 µM; in the test on OVCAR-8 ovarian it was 0.0259 µM; in the test with MDA-MB-435, 5.65 µM. The GI50 was 7.91 µM with SR leukemia, 6.92 µM in the test on HT29 colon, 5.07 µM in the test with SF-295 CNS and 4.94 µM in the test with UACC-62 melanoma. For the same compound, the TGI in the test with K-562 leukemia is 24.1 µM; with SK-OV-3 ovarian, 32.5 µM; with SN12C renal it was 8.04 µM; with PC-3 prostate, 12.2 µM; in the test with OVCAR-8 ovarian, 9.86 µM; in the test with MDA-MB-435, 10.6 µM. The TGI in the test with SR leukemia turned out to be 18.7 µM; with HT29 colon, 14.4 µM; with SF-295 CNS it was 9.56 µM; in the test on UACC-62 melanoma, 9.97 µM.
As to `S=C(N/N=C(/c1ccccc1)c1ccccn1)Nc1cccc(Cl)c1`, the GI50 was 0.0671 µM in the test on SK-OV-3 ovarian; 0.0264 µM in the test with PC-3 prostate; 0.0258 µM in the test with OVCAR-8 ovarian; 1.09 µM in the test on MDA-MB-435; 0.00413 µM with SR leukemia; 0.662 µM and 0.0738 µM in the test with HT29 colon. In addition, the GI50 in the test on SF-295 CNS is 0.968 µM. Moreover, the TGI with SK-OV-3 ovarian is 2.93 µM and 3.73 µM; in the test with SN12C renal it was 6.07 µM; in the test with PC-3 prostate, 7.05 µM and 6.71 µM; in the test with OVCAR-8 ovarian, 2.87 µM; with MDA-MB-435, 2.95 µM and 4.56 µM; in the test with HT29 colon, 11.9 µM. For the same compound, the TGI with SF-295 CNS was 5.36 µM and 5.17 µM; in the test on UACC-62 melanoma, 0.793 µM and 2.66 µM.
For the compound `O=C1c2ccccc2C(=O)c2c1ccc1c2OCO1`, the TGI with SK-OV-3 ovarian, in the test on SN12C renal, in the test with PC-3 prostate, in the test with OVCAR-8 ovarian, in the test on MDA-MB-435 and with SR leukemia was above 100 µM throughout. In addition, the TGI in the test on HT29 colon, in the test with SF-295 CNS and in the test on UACC-62 melanoma was above 100 µM each time.
As to `CN1CCCCC1CCN1c2ccccc2Sc2ccc(S(C)=O)cc21` (stereo not drawn), the TGI with K-562 leukemia, in the test on SK-OV-3 ovarian, in the test on SN12C renal, with PC-3 prostate, in the test with OVCAR-8 ovarian and in the test on MDA-MB-435 was above 100 µM throughout. Further, the TGI in the test on SR leukemia, in the test with HT29 colon, in the test with SF-295 CNS and with UACC-62 melanoma was above 100 µM each time.
